# In patent US20170321285A1, “NLRC5 AS A BIOMARKER FOR CANCER PATIENTS AND A TARGET FOR CANCER THERAPY” (THE TEXAS A&M UNIVERSITY SYSTEM, priority 2016, published 2017):
# Test system: hla-b promoter
# Assay: hla-b promoter dual-luciferase reporter assay with nlrc5 mutant plasmids in HEK293T cells
# Format: cell-based, human
# Settings: 100 ng mutant plasmid with HLA-B250 luciferase reporter, 48 h post-transfection (FIG. 3H)
# From the text: FIGS. 3A-3J. Copy number loss and somatic mutations in nlrc5 are associated with reduced MHC class I gene expressions. FIG. 3A. Percentage of cancer patients who carry nlrc5 copy number (CN) loss among 20 TCGA tumor types. Based on GISTIC values, samples were classified into nlrc5 diploid group and CN loss group: GISTIC 0, diploid; −1 and −2, CN loss. FIG. 3B. Percentage of cancer patients who carry copy number (CN) loss of various MHC class I-related genes for 10 TCGA tumor types for which data are available (bladder, breast, colon, head/neck, lung adeno, lung squamous, ovarian, prostate, rectal and uterine cancer, top) and ovarian cancer (bottom). Statistical significance was determined by chi-square test. *: p<0.01, **: p<0.0001. FIG. 3C. Heatmap showing gene expression of nlrc5 and hla-b in nlrc5 diploid group (n=2028) or CN loss group (n=890) for 17 TCGA tumor types in which the nlrc5 promoter is not methylated. FIG. 3D. The box plots showing nlrc5 and MHC class I-related gene expression in the nlrc5 diploid group or CN loss group in breast cancer patients. FIG. 3E. Pie chart representing the percentage distribution of different types of mutations in nlrc5 in various cancer patients (n=7752). FIG. 3F. Mutation rate in 20 TCGA tumor types. FIG. 3G. Representation of nlrc5 indicating 13 mutations found in at least 2 different cancer patients. FIG. 3H. HEK293T cells were co-transfected with either empty control vector or the respective nlrc5 mutant plasmid with hla-b reporter plasmid and hla-b promoter activity was assessed by the dual-luciferase assay and normalized against Renilla […] activity. Data are representative of two independent experiments performed in duplicate and is plotted as fold induction with respect to the control vector. Error bar: ±sd. FIG. 3I. […] FIG. 3J. Box plots for the expression level of MHC class I-related genes normalized by the expression level of nlrc5 in 20 TCGA tumor types that are either nlrc5 wild-type or nlrc5 mutant. FIGS. 3D-3J. The horizontal line corresponds to the median, the box to the 25th-75th percentile and the lines to the confidence interval (5th-95th percentile).
# The expression vector for human gfp-nlrc5 in pcDNA3.1 was previously described. The reporter gene construct used for MHC class I promoter activity (HLA-B250) was also previously described. Selected nlrc5 mutants were constructed using pcDNA3.1-gfp-nlrc5 by site-directed mutagenesis using the primers listed in Table 3. All the plasmids were confirmed by sequencing (Gene Technologies Laboratory).
# HEK293T cells were cultured in DMEM supplemented with 10% FBS and penicillin/streptomycin (Life Technologies) at 37° C. with 5% CO2. Cells were transiently transfected using polyethylenimine at a DNA/polyethylenimine ratio of 1:3 in serum-free media. For luciferase assay, HEK293T cells were split at a density of 5×10^4 cells/well into 24-well plates 1 day prior to transfection. Cells were co-transfected using 100 ng of gfp-nlrc5 or 100 ng of the specified nlrc5 mutant plasmids along with 100 ng of HLA-B250 luciferase reporter construct. 20 ng promoterless Renilla luciferase vector (pRL-null; Promega) were included for normalization of transfection efficiency. Cells were harvested 48 h post-transfection, and cell lysates were analyzed using the Dual-Luciferase Reporter Assay System (Promega) according to the manufacturer's instructions.
row,Molecule,activity of the NLRC5 protein as compared to the wild-type NLRC5 protein (induction of hla-b promoter activity)
1,"Q1847*: NLRC5 nonsense mutant found in cancer patients, expressed from gfp-nlrc5 vector made by site-directed mutagenesis",reduces the activity
2,"R574H: NLRC5 protein mutant found in cancer patients, expressed from gfp-nlrc5 vector made by site-directed mutagenesis",does not reduce or increases the activity
3,"S496F: NLRC5 protein mutant found in cancer patients, expressed from gfp-nlrc5 vector made by site-directed mutagenesis",does not reduce or increases the activity
4,"L181P: NLRC5 protein mutant found in cancer patients, expressed from gfp-nlrc5 vector made by site-directed mutagenesis",reduces the activity
5,"R262C: NLRC5 protein mutant found in cancer patients, expressed from gfp-nlrc5 vector made by site-directed mutagenesis",reduces the activity
6,"A1512T: NLRC5 protein mutant found in cancer patients, expressed from gfp-nlrc5 vector made by site-directed mutagenesis",does not reduce or increases the activity
7,"R550W: NLRC5 protein mutant found in cancer patients, expressed from gfp-nlrc5 vector made by site-directed mutagenesis",reduces the activity
8,"R386W: NLRC5 protein mutant found in cancer patients, expressed from gfp-nlrc5 vector made by site-directed mutagenesis",does not reduce or increases the activity
9,"D884N: NLRC5 protein mutant found in cancer patients, expressed from gfp-nlrc5 vector made by site-directed mutagenesis",does not reduce or increases the activity
10,"R1830C: NLRC5 protein mutant found in cancer patients, expressed from gfp-nlrc5 vector made by site-directed mutagenesis",reduces the activity
11,"T1173M: NLRC5 protein mutant found in cancer patients, expressed from gfp-nlrc5 vector made by site-directed mutagenesis",does not reduce or increases the activity
12,"A737D: NLRC5 protein mutant found in cancer patients, expressed from gfp-nlrc5 vector made by site-directed mutagenesis",reduces the activity

# Test system: cancer cell lines
# Assay: not given
# Settings: 3 μM 5-azacytidine, various cancer cell lines, qPCR (FIG. 2A)
Molecule,expression of hla-b,expression of nlrc5
"Nc1ncn([C@@H]2O[C@H](CO)[C@@H](O)[C@H]2O)c(=O)n1 [5-Azacitidine, 4-amino-1-β-D-ribofuranosyl-1,3,5-triazin-2(1H)-one]",upregulation,upregulation
